Patent US9227966B2, “Antimicrobial agents” (Rutgers, The State University of New Jersey, priority 2010, dated 2016)

tested on: methicillin-Sensitive Staphylococcus aureus (MSSA); experiment: Planktonic (free-living) antibacterial assay, broth microdilution MIC vs. MSSA; type: cell-based; settings: minimal concentration at which bacterial growth is completely inhibited, 37° C., 24 to 48 hours, OD 600 nm
Method: Test C. Planktonic (Free-Living) Antibacterial Assay.
Planktonic antibacterial activity can be determined using a broth microdilution assay in which log-phase bacteria are grown at 37° C. in appropriate medium containing two-fold serial dilutions of a compound to yield a final concentration ranging from […]. For determination of minimal inhibitory concentration (MIC) values, bacterial growth is monitored after 24 to 48 hours by measuring optical density at 600 nm.
The minimal inhibitory concentration against methicillin-Sensitive Staphylococcus aureus (MSSA) for each of the following representative compounds of the invention was determined to be less than 32 μg/ml.

| SMILES | MIC |
| --- | --- |
| C[n+]1cc2ccccc2cc1-c1cccc(-c2ccccc2)c1.[I-] [Example 2] | ≤ 32 µg/mL |
| COc1cc2cc(-c3cccc(-c4ccccc4)c3)[n+](C)c(C)c2cc1OC.[I-] [Example 4] | ≤ 32 µg/mL |
| C[n+]1cc2ccccc2cc1-c1cc(-c2ccccc2)cc(-c2ccccc2)c1.[I-] [Example 6] | ≤ 32 µg/mL |
| COc1cc2cc(-c3cc(-c4ccccc4)cc(-c4ccccc4)c3)[n+](C)c(C)c2cc1OC.[I-] [Example 8] | ≤ 32 µg/mL |
| COc1cc2cc(-c3cccc(-c4ccc(-c5ccccc5)cc4)c3)[n+](C)c(C)c2cc1OC.[I-] [Example 16] | ≤ 32 µg/mL |
| COc1cc2cc3c4cc(-c5cccc(N(C)C)c5)c(OC)cc4cc[n+]3c(C)c2cc1OC [Example 27] | ≤ 32 µg/mL |
| COc1cc2cc3c4cc(-c5ccc(C)cc5)c(OC)cc4cc[n+]3c(C)c2cc1OC [Example 30] | ≤ 32 µg/mL |
| COc1cc2cc3c4cc(-c5ccc(C)cc5)c(OC)cc4cc[n+]3cc2cc1OC.[Cl-] [Example 31] | ≤ 32 µg/mL |
| COc1cc2cc3c4cc(-c5ccccc5)c(OC)cc4cc[n+]3cc2cc1OC.[Cl-] [Example 35] | ≤ 32 µg/mL |

The remaining lines, values ahead:

| MIC | SMILES |
| --- | --- |
| ≤ 32 µg/mL | COc1cc2cc3c4cc(-c5ccc(-c6ccccc6)cc5)c(OC)c(OC)c4cc[n+]3c(C)c2cc1OC [Example 17] |
| ≤ 32 µg/mL | COc1cc2cc[n+]3cc4c(OC)c(OC)c(OC)cc4cc3c2cc1-c1ccc(-c2ccccc2)cc1.[Cl-] [Example 19] |
| ≤ 32 µg/mL | COc1cc2c(C)[n+]3ccc4c(OC)c(OC)ccc4c3cc2c(-c2ccc(-c3ccccc3)cc2)c1OC [Example 20] |
| ≤ 32 µg/mL | COc1cc2c[n+]3ccc4c(OC)c(OC)ccc4c3cc2c(-c2ccc(-c3ccccc3)cc2)c1OC.[Cl-] [Example 21] |
